Measured values published in patent US8524688B2, “Use of sulfated glycosaminoglycans for establishing effective labor in women” (Dilafor AB, priority 2002, dated 2013).

Experiments:
cervical fibroblasts = experiment: Effect on Ca2+ levels in cervical fibroblasts (Fluo-4 fluorescence); type: cell-based, human; details: cultures from non-pregnant and term pregnant patients
Procedure: Fibroblast cultures were established from non-pregnant, and term pregnant patients and from women delivered vaginally (after partus patients). The cells were cultured in monolayer cultures with minimum essential medium with 10% donor calf serum. For experiments these cells were plated on cover glasses with at semi-confluence and loaded with Fluo-4 in phosphate buffered saline containing 10 mM HEPES for 30 min. Initially phosphate buffered saline containing 10 mM HEPES (HEPES-buffer) was pumped into the observation chamber for 30 s, then KCl in the same buffer was pumped for 60 s followed by HEPES-buffer for 30 s. Then 10 ng of PDGF/ml in HEPES-buffer was added. The fluorescence was monitored continuously for 3 min. In other experiments PDGF was replaced with 100 μg of HS6. […] This effect is postulated to be of importance at partus for final preparation of cervix for delivery.

[1] = tested on: human uterine strips (myometrial strip); experiment: Contractile assay on uterine strips in organ bath; details: 1 U oxytocin only
Procedure: In the following test heparan sulfate HS2 and HS6 obtained from the heparin side fraction TB 001-91 SVCM 950130 (Kabi-Pharmacia, Sweden) were tested. HS6 differs from HS2 by being more highly sulfated and having more L-iduronic acid residues (see Table 1 above).
Uterine samples were obtained from women undergoing elective caesarian section at 38-39 weeks of gestation. The samples measured 20×10×10 mm and were taken from the upper part of the isthmic incision. The biopsy was immediately placed in ice-cold Krebs-Ringer buffer. The biopsies were cut into longitudinal strips, length 10-15 mm and breadth about 5 mm. The strip was mounted vertically in an organ bath of 37° C. containing 2 ml Krebs-Ringer solution. The solution was bubbled with a mixture of 95% O2 and 5% CO2 in order to maintain a pH in the bath of 7.35-7.45. Experiments were carried out after the strips had equilibrated to a stable contractile state, usually within 1-2 h after mounting. The contractions were recorded isometrically with a Grass model 7 polygraph (Grass Instr. Co., Quincy, Mass., USA). All samples were exposed to 100 mM KCl during the experiment in order to get a standardized maximum response. […]
This procedure was repeated using 6 μg of heparan sulfate. […] The contractions were recorded and evaluated by integrating the surface under the curve. […]

[Cl-].[K+] [KCl]
Change of fluorescence (intracellular Ca2+) (cervical fibroblasts): No change of fluorescence

CC[C@H](C)[C@@H]1NC(=O)[C@H](Cc2ccc(O)cc2)NC(=O)[C@@H](N)CSSC[C@@H](C(=O)N2CCC[C@H]2C(=O)N[C@@H](CC(C)C)C(=O)NCC(N)=O)NC(=O)[C@H](CC(N)=O)NC(=O)[C@H](CCC(N)=O)NC1=O [Oxytocin, oxytocin]
Relative contractility of myometrial strip, oxytocin control [1]: 226 % of unstimulated control

PDGF
Change of fluorescence (intracellular Ca2+) (cervical fibroblasts): No change of fluorescence
